Laboratory results as given in publication PMC12480552 (Scientific Reports, 2025).
Like-named read-outs stand apart in the source and are kept apart here. Each block holds one molecule with its values, some of them ahead of it.

Key:
[1] = in vivo; settings: male, rhesus monkey; for Kp / Kp uu: brain
Protocol: Animals were randomized using the GSK Randomization App 2.0, which is an internal software tool that uses the ‘sample’ function in R to randomly shuffle animal IDs, then assigns them to treatment groups to ensure unbiased allocation.
Before each dose, animals were lightly sedated with an intramuscular injection of ketamine (5–10 mg/kg), and a blood sample was drawn. […] NHPs were euthanized by administering an overdose of injected sodium pentobarbital IV (150–200 mg/kg) and confirmed by thoracotomy and exsanguination. Terminal plasma, cerebrospinal fluid, and brain tissue were collected at necropsy. […] The brain was cut into six roughly 1-cm thick coronal segments before snap-freezing by floating on liquid nitrogen. The right hemispheres of the four interior coronal brain segments were cryosectioned and analyzed by matrix-assisted laser desorption/ionization mass spectrometry imaging (MALDI MSI) to quantitatively assess the tissue distribution of the dosed compounds[40]–[43]. After MALDI MSI analysis, tissue sections were stained with hematoxylin and eosin (H&E) for correlation of ion images with underlying tissue histology.
Brain tissue was weighed in polypropylene tubes, then phosphate-buffered saline (PBS) was added to the tissue sample before homogenization (1:4 wt: vol).
The LC-MS/MS system includes an API-6500 triple quadrupole mass spectrometer (Sciex, Framingham, MA) and an ExionLC system (ExionLC Controller, ExionLC AD Column Oven, ExionLC AD Pump, and ExionLC AD Multiplate Sampler; all from Sciex). Data were acquired and processed using Analyst® 1.7.2 software (Sciex). An Acquity UHPLC BEH C18 analytical column (1.7-µm, 2.1 × 50 mm; Waters, Milford, MA) was applied in sample analysis.
First, the brain tissue partition coefficient Kp, brain was calculated using Eq. (1).
Where Css, brain is the mean steady-state total drug concentration in brain tissue, and Css, plasma is the mean steady-state total drug concentration in plasma (both measured by LC-MS/MS). […] Finally, Kp, uu, brain was calculated using Eq. (2).2 [drawing 2]

[2] = test system: human P-gp; settings: MDCKII cells overexpressing human P-gp; cited from earlier work
[3] = MALDI MSI of brain sections, mouse model of brain metastasis (MDA231-BrM2-831); assay type: in vivo, NCr nude mice
Source text: A luciferase-transfected human breast adenocarcinoma cell line (MDA 231-BRM2-831) was used to generate a metastatic brain tumor model in female athymic nude mice. […] NCr nude mice (strain: CrTac: NCr-Foxn1^nu; female; 5-7 weeks old; Taconic Biosciences (Germantown, NY)) were used for these studies. A power analysis was completed by a statistician to determine the appropriate sample sizes for each group to measure a statistically significant. […] Control mice (n = 10) underwent a sham IC procedure (needle insertion into the ventricle without cell injection. All mice were monitored for tumor development by bioluminescence imaging (BLI) approximately once weekly for ~ 45 days, beginning 1 h after cell injection. In vivo BLI was performed at ~ 10 min post-luciferin injection (corresponding to the peak bioluminescent signal) using an IVIS Spectrum-CT system (PerkinElmer, Waltham, MA). Imaging parameters were set to automatic exposure in the Living Image software, while the binning (8) and aperture (open f-stop) remained at the default settings for all BLI acquisitions. The imaging frequency was increased to twice weekly for mice that developed brain metastases (BMs) as indicated by increased bioluminescence in the cranial region. […] The exact tumor size was not measured as an endpoint of this study. […] Two hours after the final dose, mice were euthanized by CO2 asphyxiation. At necropsy, a terminal blood sample was collected via cardia puncture, and the brains were harvested and snap-frozen by floating on liquid nitrogen. […] From each plane, serial tissue sections were collected for MALDI MSI and for H&E staining, and immunohistochemistry (IHC) staining. Tissue trimmings from between each plane were collected, homogenized, and submitted for bioanalysis in addition to the terminal plasma samples. For the mouse metastases study, tissue sections were collected from five horizontal tissue planes starting from roughly 1 mm from the top of the tissue, and each subsequent tissue plane was separated by roughly 1 mm. […] For MALDI MSI analysis, sections were thaw-mounted onto indium tin oxide-coated slides (Delta Technologies, Ltd, Loveland, CO). For H&E and IHC analyses, tissue sections were collected onto superfrost glass slides (Fisher Scientific, Waltham, MA). Brain tissue trimmings from between each of the horizontal planes were pooled and collected into a pre-weighed vial for homogenization and LC-MS/MS bioanalysis (described in detail later). […] Arraymold, Ogden, UT). […] DMSO: […] […] Ion images were loaded into […] […] Statistical significance was set at p < 0.05.

[4] = Protein binding by rapid equilibrium dialysis, rhesus macaque brain and plasma; settings: rhesus monkey, pH 7.4
Source text: The luciferase-transfected human breast cancer cell line (MDA231-BrM2-831) was purchased from Memorial Sloan Kettering Cancer Center (New York, NY). […] Deuterated olaparib (olaparib-d8) was purchased from Alsachim (Illkirch Graffenstaden, France). Cynomolgus macaque brain tissue (lot #CYN252598), rhesus macaque brain tissue (lot #RHS24901), rhesus macaque plasma (lot #RHS24900), CD1 mouse brain tissue (lot #MSE343926), and CD1 mouse plasma (lot #MSE343926) used in the protein-binding assays were obtained from BioIVT (Westbury, NY).
Brain (diluted 1:4 [5×] in PBS) or plasma (undiluted) were spiked with each test compound and applied to each matrix. Aliquots of each mixture were added to the donor wells of a rapid equilibrium dialysis plate in triplicate, and blank PBS was added to each receiver well, at volumes recommended by the manufacturer. Plates were incubated with shaking at 200 rpm for 4 h at 37 °C. At the end of incubation, samples were collected from each donor and receiver well. Samples were matrix-matched with the addition of an equivalent volume of blank matrix to each receiver sample and blank PBS to each donor sample. Additional samples were collected from each incubation mixture at the beginning (T = 0 min) and end (T = 240 min) of incubation for determination of stability, and matrix-matched with PBS as described above. The resultant samples were extracted by protein precipitation with acetonitrile containing an analytical internal standard, centrifuged, and analyzed by LC-MS/MS.

[5] = BM mice (niraparib n = 4, olaparib n = 3), oral once daily 5 days, niraparib 35 mg/kg or olaparib 50 mg/kg, 2 h after final dose, LOD 70 ng/g niraparib, 170 ng/g olaparib

Kp ([1]; Mean Kp): 3.18
Kp uu ([1]; Mean Kp): 0.313
concentration at 2 h ([3]; female, NCr nude (CrTac:NCr-Foxn1nu), mouse, brain (sections), oral, 35 mg/kg, read-out: MALDI MSI Brain sections, mean (SD)): 519 ng/g
concentration at 2 h ([3]; female, NCr nude (CrTac:NCr-Foxn1nu), mouse, brain metastasis tumor tissue, oral, 35 mg/kg, all tumor-containing sections (n = 42) in all BM animals (n = 4), niraparib 35 mg/kg, read-out: MALDI MSI mean localized tumor concentration): ~1700 ng/g
concentration at 2 h ([3]; female, NCr nude (CrTac:NCr-Foxn1nu), mouse, brain tumor, oral, 35 mg/kg, read-out: MALDI MSI Brain tumors, mean (SD)): 2400 ng/g
concentration at 2 h ([3]; female, NCr nude (CrTac:NCr-Foxn1nu), mouse, brain ventricles, oral, 35 mg/kg, all ventricle-containing sections (n = 48) in all BM animals, niraparib 35 mg/kg, read-out: MALDI MSI mean concentration in the ventricles): ~1860 ng/g
concentration at 2 h ([3]; female, NCr nude (CrTac:NCr-Foxn1nu), mouse, brain, oral, 35 mg/kg, read-out: MALDI MSI Brain sections, mean (SD)): 487 ng/g
Kp at 2 h ([3]; female, NCr nude (CrTac:NCr-Foxn1nu), mouse, oral, 35 mg/kg, BM mice, mean brain tumor ROI total concentration by MALDI MSI versus terminal plasma total concentration): 0.945
concentration at 2 h ([3]; female, NCr nude (CrTac:NCr-Foxn1nu), mouse, whole brain (sections), oral, 35 mg/kg, Brain Metastases, Mouse 1, Fig. 2B, read-out: MALDI MSI Mean Conc., whole brain, individual mouse): 430 ng/g
concentration at 2 h ([3]; female, NCr nude (CrTac:NCr-Foxn1nu), mouse, whole brain (sections), oral, 35 mg/kg, Brain Metastases, Mouse 2, Fig. 2B, read-out: MALDI MSI Mean Conc., whole brain, individual mouse): 640 ng/g
concentration at 2 h ([3]; female, NCr nude (CrTac:NCr-Foxn1nu), mouse, whole brain (sections), oral, 35 mg/kg, Brain Metastases, Mouse 3, Fig. 2B, read-out: MALDI MSI Mean Conc., whole brain, individual mouse): 540 ng/g
concentration at 2 h ([3]; female, NCr nude (CrTac:NCr-Foxn1nu), mouse, whole brain (sections), oral, 35 mg/kg, Brain Metastases, Mouse 4, Fig. 2B, read-out: MALDI MSI Mean Conc., whole brain, individual mouse): 340 ng/g
concentration at 2 h ([3]; female, NCr nude (CrTac:NCr-Foxn1nu), mouse, whole brain (sections), oral, 35 mg/kg, No Brain Metastases, Mouse 8, Fig. 2B, read-out: MALDI MSI Mean Conc., whole brain, individual mouse): 400 ng/g
concentration at 2 h ([3]; female, NCr nude (CrTac:NCr-Foxn1nu), mouse, whole brain (sections), oral, 35 mg/kg, No Brain Metastases, Mouse 9, Fig. 2B, read-out: MALDI MSI Mean Conc., whole brain, individual mouse): 560 ng/g
concentration at 2 h ([3]; female, NCr nude (CrTac:NCr-Foxn1nu), mouse, whole brain (sections), oral, 35 mg/kg, No Brain Metastases, Mouse 10, Fig. 2B, read-out: MALDI MSI Mean Conc., whole brain, individual mouse): 600 ng/g
fraction unbound at 4 h, 1 µM ([4]; plasma (undiluted)): 0.366
SMILES: NC(=O)c1cccc2cn(-c3ccc([C@@H]4CCCNC4)cc3)nc12 [Niraparib]
P-gp substrate status [2]: substrates for P-gp

SMILES: O=C(c1cc(Cc2n[nH]c(=O)c3ccccc23)ccc1F)N1CCN(C(=O)C2CC2)CC1 [Olaparib]
Kp, brain [1]: 0.044
Kp, uu, brain [1]: 0.028
Kp ([1]; Kp): 0.037
Kp uu ([1]; Kp): 0.024
Kp ([1]; Mean Kp): 0.041
Kp uu ([1]; Mean Kp): 0.026
P-gp substrate status [2]: substrates for P-gp
MALDI MSI Brain sections, mean (SD) [3, 5]: < LOD
MALDI MSI Brain tumors, mean (SD) [3, 5]: < LOD
MALDI MSI Brain sections, mean (SD) ([3]; No BM mice (n = 3), oral once daily 5 days, niraparib 35 mg/kg or olaparib 50 mg/kg, 2 h after final dose, LOD 70 ng/g niraparib, 170 ng/g olaparib): < LOD
fraction unbound at 4 h, 1 µM ([4]; brain homogenate): 0.194
fraction unbound at 4 h, 1 µM ([4]; plasma): 0.301
